Each structure is given as a SMILES string.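 Dose response: 5 concentrations. Exposure: 48 h. Format: 96-well plates. Endpoint: linear interpolation; highest concentration if not reached. The concentration for 50% growth inhibition is given as GI50. Definition used: TGI = concentration required for complete inhibition of growth.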 Some results are limits rather than exact numbers.

What all share (assay): growth of human tumour cells (NCI), 48 h
Test [1] has as its system 786-0 renal.
Test [2] relates to A549 NSCLC.
Test [3] has as its system BT-549 breast.
Test [4] concerns HCC-2998 colon.
The subject of test [5] is K-562 leukemia.
For test [6], the system named is MALME-3M melanoma.
The subject of test [7] is MCF7 breast.
In test [8] the test system is OVCAR-4 ovarian.
The subject of test [9] is OVCAR-5 ovarian.
Test [10] has as its system RXF 393 renal.
The test system of test [11] is T-47D breast.
Test [12] deals with U251 CNS.
Test [13] deals with UACC-62 melanoma.

For `Cc1cc(S(=O)(=O)Nc2cc(N)[nH]n2)c(SCc2nc(N)nc(N(C)C)n2)cc1Cl`, the TGI in test [1], in test [2], in test [3], in [4], in [5] and in test [6] was above 10 µM throughout. Also, the TGI in test [7], in test [8], in test [9], in [10], in test [11] and in test [12] was above 10 µM throughout.

With `CC(=O)NC(c1nc2cc(C)c(C)cc2[nH]1)c1nc2cc(C)c(C)cc2[nH]1`, the TGI was 65.2 µM in [2]; 61.6 µM in [3]; 34.6 µM in test [4]; above 100 µM in test [5]; 83.7 µM in test [6]; above 100 µM in test [7]. Moreover, the TGI in test [8] was 72.8 µM; in test [9], above 100 µM; in test [10] it was 84.8 µM; in test [11], above 100 µM; in [12] it was 57.9 µM; in test [13], above 100 µM.

As to `COc1ccc(/C(O)=C/c2nc3cccnc3nc2/C=C(\O)c2ccc(OC)cc2)cc1`, the TGI is 10.4 µM in test [1]; 39.6 µM in test [2]; 53.5 µM in test [3]; above 100 µM in [4]; above 100 µM in test [5]; 52.2 µM in test [6]. The TGI in test [7] is 50.1 µM; in test [8] it was 18.3 µM; in test [9] it was above 100 µM; in test [11] it was 86.1 µM; in test [12] it was 37.7 µM; in test [13], 44.7 µM.

Turning to `c1ccc([P+](Cc2ccccc2C[P+](c2ccccc2)(c2ccccc2)c2ccccc2)(c2ccccc2)c2ccccc2)cc1`, the TGI in test [1], in [2], in [3], in [4], in test [5] and in test [6] was above 100 µM each time. The TGI in test [7], in test [9], in test [10], in test [11], in test [12] and in test [13] was above 100 µM each time.

With `CC(SC(=S)N1CCOCC1)C(=O)Nc1nnc(-c2ccccc2)o1` (configuration not stated), the TGI in test [1], in test [2], in test [3], in test [5], in test [6] and in test [7] was above 100 µM each time. Further, the TGI in test [8], in test [9], in test [10], in test [11] and in test [12] was above 100 µM throughout.

With `[O-][n+]1ccccc1S`, the TGI in test [1] was above 100 µM; in test [2] it was 38.5 µM; in test [3], above 100 µM; in [4], above 100 µM; in test [6], 89.1 µM; in [7], above 100 µM. Moreover, the TGI in [8] was 4.4 µM; in test [9] it was above 100 µM; in [10], 8.33 µM; in test [11], above 100 µM; in [12], above 100 µM; in [13], 29.6 µM. Besides, the results for the GI50 in test [3], in [7] and in [11] were 27.1 µM, 1.93 µM and 6.27 µM, respectively.

On to `CC1=C/C(=N\O)C(C(O)(C(F)(F)F)C(F)(F)F)C(C)(C)C1` (configuration not stated), for which the TGI in test [1], in test [2], in test [3], in test [4], in test [5] and in test [6] was above 10 µM in each case. For the same compound, the TGI in test [7], in [8], in test [9], in test [11], in [12] and in test [13] was above 10 µM in each case.

Regarding `CC1=CC[C@@]2(CO)[C@@H]([C@@H]1C)[C@H]1CC[C@@H]3[C@@]4(C)CC[C@H](O)C(C)(C)[C@@H]4CC[C@@]3(C)[C@]1(C)C[C@@H]2O`, the TGI in test [1] was above 100 µM; in test [2] it was above 100 µM; in test [3], 59.2 µM; in [5], above 100 µM; in [6], 72.8 µM; in test [7], above 100 µM. The TGI in test [8] is above 100 µM; in test [9], above 100 µM; in [10], 25.7 µM; in test [11], 75.1 µM; in test [12] it was 46.7 µM; in [13] it was above 100 µM.

Turning to `COc1cc(S(=O)(=O)Nc2ccc(-c3csc(N)n3)cc2)ccc1Cl`, the TGI in [1] turned out to be 30 µM; in test [2], 39.6 µM; in test [3], 43.1 µM; in [5], 44.3 µM; in [6] it was 31.4 µM; in test [7], 29.9 µM. For the same compound, the TGI in [8] came out at 27.9 µM; in test [9], 40.4 µM; in test [10], 33.8 µM; in [11] it was 23 µM; in [13] it was 30 µM.

For the compound `C=C[C@@H]1C[C@]2(C(=O)OC)Cc3nc4ccccc4nc3CC(C(=O)OC)=C2O1`, the TGI in [1], in test [2], in test [3], in test [6], in test [7] and in test [8] was above 100 µM in each case. For the same compound, the TGI in [9], in test [10], in test [11], in test [12] and in test [13] was above 100 µM each time.

`Nc1ccn(C2CCC(CO)O2)c(=S)n1` (configuration not stated): the TGI in test [1], in [2], in test [3], in [4], in [5] and in [6] was above 100 µM each time. The TGI in test [7], in [9], in [10], in test [11], in test [12] and in test [13] was above 100 µM in each case.

The values above are taken from PubChem BioAssay (NCI).
